Measured values published in patent US7879997B2, “Compounds for the treatment of inflammatory disorders” (Schering Corporation, priority 2005, dated 2011).

Target: T1, purified catalytic domain of recombinant human TACE (rhTACEc) (Homo sapiens, UniProt P78536, N452Q/S266A)
T1 construct: rhTACEc, Residue 215 to 477 with two mutation (S266A and N452Q) and a 6× His tail; 6xHis (C); made in house; host or cells: baculovirus/Hi5 insect cells
Assay: TACE kinetic assay, cleavage of internally quenched peptide substrate SPDL-3
Format: biochemical
Method: TACE activity is determined by a kinetic assay measuring the rate of increase in fluorescent intensity generated by TACE catalyzed cleavage of an internally quenched peptide substrate (SPDL-3). The purified catalytic domain of recombinant human TACE (rhTACEc, Residue 215 to 477 with two mutation (S266A and N452Q) and a 6× His tail) is used in the assay. It is purified from the baculovirus/Hi5 cells expression system using affinity chromatography. The substrate SPDL-3 is an internally quenched peptide (MCA-Pro-Leu-Ala-Gln-Ala-Val-Arg-Ser-Ser-Ser-Dpa-Arg-NH2), with its sequence derived from the pro-TNFα cleavage site. MCA is (7-Methoxycoumarin-4-yl)acetyl. Dpa is N-3-(2,4-Dinitrophenyl)-L-2,3-diaminopropionyl.
A 50 μl assay mixture contains 20 mM HEPES, pH 7.3, 5 mM CaCl2, 100 μM ZnCl2, 2% DMSO, 0.04% Methylcellulose, 30 μM SPDL-3, 70 pM rhTACEc and a test compound. RhTACEc is pre-incubated with the testing compound for 90 min. at 25° C. Reaction is started by addition of the substrate. The fluorescent intensity (excitation at 320 nm, emission at 405 nm) was measured every 45 seconds for 30 min. using a fluorospectrometer (GEMINI XS, Molecular Devices). Rate of enzymatic reaction is shown as Units per second. Effect of a test compound is shown as % of TACE activity in the absence of the compound.

[1] = Specific TACE inhibitory activity (Ki values)
[2] = TACE inhibitory activity, class letters

T1 sequence (P78536 215-477 S266A/N452Q): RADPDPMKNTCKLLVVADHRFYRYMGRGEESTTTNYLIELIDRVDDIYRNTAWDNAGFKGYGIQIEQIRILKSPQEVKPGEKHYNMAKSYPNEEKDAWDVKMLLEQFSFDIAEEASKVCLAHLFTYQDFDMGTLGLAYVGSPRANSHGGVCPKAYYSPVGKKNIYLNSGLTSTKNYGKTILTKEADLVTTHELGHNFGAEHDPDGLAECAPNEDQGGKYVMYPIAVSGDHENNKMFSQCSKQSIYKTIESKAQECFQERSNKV

| Ki [1] | Ki [2] | SMILES |
| --- | --- | --- |
| 59 nM | 20 to 100 nM | CCOC(=O)[C@@]1(Cc2ccc(OCc3cc(-c4ccccc4)nc4ccccc34)cc2)CNC[C@@H]1C(=O)NO [Compound A12] |
| 11.7 nM | < 20 nM | O=C1N[C@H](C(=O)NO)[C@@H]1Cc1ccc(OCc2cc(-c3ccccc3)nc3ccccc23)cc1 [Compound B8] |
| 55 nM | 20 to 100 nM | O=C(NO)[C@H]1NC(=O)[C@@H]1Cc1ccc(OCc2cc(-c3ccccc3)nc3ccccc23)cc1 [Compound C5] |
|  | 100 to 1000 nM | COC(=O)C(Oc1ccc(C[C@H]2C(=O)N[C@@H]2C(=O)NO)cc1)c1cc(-c2ccccc2)nc2ccccc12 (stereo partly shown) [Compound E3] |
